In patent US4266048A, “Synthesis of analogs of 3'-phosphoadenosine 5'-phosphosulfate (PAPS)” (The United States of America as represented by the …, priority 1978, dated 1981):
Counter-ions that a name gives are not always drawn.

Assays:
[1] = target: T1, bovine adrenal estrogen sulfotransferase (EC 2.8.2.4) (Bos taurus, UniProt P19217); test: Relative sulfurylation rate (RSR): enzymic transfer of sulfate from analogs IV and V to estrone at saturating steroid; conditions: for RSR (in words): sulfurylation of estrone relative to IVa (RSR=1); for reduction in RSR relative to IVa: 200 μM, may be a result of inhibition by coproducts; for calculated level of coproduct produced: nucleotide at 200 μM
T1 sequence (P19217 1-295): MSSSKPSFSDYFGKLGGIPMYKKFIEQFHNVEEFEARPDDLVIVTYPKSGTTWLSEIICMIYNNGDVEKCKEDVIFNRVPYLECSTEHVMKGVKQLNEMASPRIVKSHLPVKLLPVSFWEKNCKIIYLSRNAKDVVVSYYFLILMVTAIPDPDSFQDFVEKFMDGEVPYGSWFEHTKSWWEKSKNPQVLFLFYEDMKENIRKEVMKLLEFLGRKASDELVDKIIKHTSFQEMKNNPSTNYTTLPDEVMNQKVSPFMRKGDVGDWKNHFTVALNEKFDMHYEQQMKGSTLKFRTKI

[2] = target: T1, bovine adrenal estrogen sulfotransferase (EC 2.8.2.4); set-up: Ki data from Horwitz et al 1977; conditions: cited from earlier work; for enzyme affinity / effect of coproduct (in words) / Ki of coproduct: estrogen sulfotransferase; for enzyme affinity / effect of coproduct (in words): discussion of Ki values; for Ki of coproduct: unit not given
[3] = target: T1, bovine adrenal estrogen sulfotransferase (EC 2.8.2.4); test: Inhibition / affinity of desulfurylated nucleotides (coproducts) on estrogen sulfotransferase; type: biochemical; set-up: Ki data from Horwitz et al 1977; conditions: product of the reaction
Description: ^b Data taken from Tables II and III of Horwitz et al, Biochim.

[4] = target: T1, bovine adrenal estrogen sulfotransferase (EC 2.8.2.4); test: Sulfate transfer to [6,7-3H2]estrone by Compounds IVa and Va (biological activity); type: biochemical
Procedure: The biological activity of IV (like PAPS) may be measured by sulfate transfer to [6,7-^3 H2 ]estrone as mediated by bovine adrenal estrone sulfotransferase (3'-phosphoadenylylsulfate:estrone 3-sulfotransferase, EC 2.8.2.4) and is identical with that obtained with a sample of IV prepared by an established biochemical procedure.
Biological activity of IVa and Va was determined by sulfate transfer to [6,7-^3 H2 ]estrone in the presence of bovine adrenal estrogen sulfotransferase (E.C. 2.8.2.4).
Bovine spleen phosphodiesterase II (E.C. 3.1.4.18) and ribonuclease T2 were purchased from Sigma Chemical Company. Bovine adrenal estrogen sulfotransferase (E.C. 2.8.2.4.) was isolated and purified as described by Adams et al, Biochim. Biophys. Acta, 370:160-188 (1974). [^35 S]PAPS and [6,7-^3 H2 ]-estrone were purchased from New England Nuclear Corp.
Sulfation of estrone with synthetic Compound IVa (PAPS) was determined using the procedure described in the article by Rozhin et al, ante. Sulfation by Compound Va was as follows. The ability of Compound Va to donate its sulfate to estrone was determined with [6,7-^3 H2 ]estrone (1.3·10^6 dpm/4 nmol) by modification of the above-mentioned Rozhin et al method in which Compound Va (0.11 mM) […] for Compound IVa.
After termination of the incubation, excess free [^3 H]estrone was extracted three times with 0.3 ml of ethyl ether and the aqueous sample adjusted to 0.5 ml with redistilled methanol. An aliquot (25 μl) was applied, together with 15 μg of methanolic estrone sulfate marker, to type SG chromatography media (Gelman Instrument Co., Ann Arbor, Michigan) and developed with chloroform/acetone/acetic acid (110:35:6). Estrone sulfate was visualized by spraying with methylene blue and the spot punched out with a cork borer and counted in 10 ml of Bray's dioxane scintillation solution. […] The amount of steroid sulfate ester produced was calculated utilizing the specific activity of [^3 H]estrone.

Storage stability = type: physicochemical; conditions: 50% ethanol at -20° C.
Procedure: Fractions containing Compound IVa were pooled and the buffer was removed in the usual manner. The product was redissolved in approx. 3 ml of H2 O and the solution was adjusted to pH 7 with dilute NH4 OH. Treatment of a small aliquot of the latter with an equal volume of 0.2 M HCl at 37° C. for 1.75 h gave adenosine 3',5'-diphosphate as the sole detectable product in Systems S1 and S2. Compound IVa was homogeneous in S1, S2, E1 and E2. […] Compound IVa gave yields of 68-72% based on Compound IIa.

## Nc1ncnc2c1ccn2[C@@H]1O[C@H](COP(=O)(O)OS(=O)(=O)O)[C@@H](O)[C@H]1OP(=O)(O)O [2'P(7-deaza-Ado)5'PS, tubercidin 2'-phosphate 5'-phosphosulfate]
[1]
  RSR (in words): relatively low

## Nc1ncnc2c1ccn2[C@@H]1O[C@H](COP(=O)(O)O)[C@@H](OP(=O)(O)O)[C@H]1O [3'P(7-deaza-Ado)5'P, tubercidin (4-amino-7-(β-D-ribofuranosyl)-7H-pyrrolo-[2,3-d]-pyrimidine) 3',5'-diphosphate]
[2]
  enzyme affinity / effect of coproduct (in words): enhanced affinity

## O=c1[nH]cnc2c1ncn2[C@@H]1O[C@H](COP(=O)(O)OS(=O)(=O)O)[C@@H](OP(=O)(O)O)[C@H]1O [3'PIno5'PS, inosine 3'-phosphate 5'-phosphosulfate]
[1]
  RSR (in words): low
[1]; listed as IVd
  RSR (in words): only minimal

## Nc1ncnc2c([C@@H]3O[C@H](COP(=O)(O)OS(=O)(=O)O)[C@@H](OP(=O)(O)O)[C@H]3O)n[nH]c12 [3'PFo5'PS, formycin 3'-phosphate 5'-phosphosulfate]
[1]
  RSR (in words): modest capacity to sulfurylate estrone

## O=P(O)(O)OC[C@H]1O[C@@H](n2cnc3c(O)ncnc32)[C@H](O)[C@@H]1OP(=O)(O)O [3'PIno5'P, inosine 3',5'-diphosphate]
[2]
  enzyme affinity / effect of coproduct (in words): substantial loss of enzyme affinity

## O=P(O)(O)OC[C@H]1O[C@@H](n2cnc3cncnc32)[C@H](O)[C@@H]1OP(=O)(O)O [3'PPuo5'P, nebularine (9-β-D-ribofuranosylpurine) 3',5'-diphosphate]
[2]
  enzyme affinity / effect of coproduct (in words): substantial loss of enzyme affinity

## C[C@]12CC[C@@H]3c4ccc(OS(=O)(=O)O)cc4CC[C@H]3[C@@H]1CCC2=O [Estrone sulfate]
[3]
  effect on the estrogen sulfotransferase reaction: little or no effect

## O=P(O)(O)O[C@H]1[C@@H](O)[C@H](n2cnc3cncnc32)O[C@@H]1COP(=O)(O)OS(=O)(=O)O [3'PPuo5'PS, nebularine 3'-phosphate 5'-phosphosulfate]
[1]
  RSR (in words): low
[1]; listed as IVc
  RSR (in words): only minimal

## Nc1ncnc2c1ncn2[C@@H]1O[C@H](COP(=O)(O)OS(=O)(=O)O)[C@@H](OP(=O)(O)O)[C@H]1O [3'PAdo5'PS, adenosine 3'-phosphate 5'-phosphosulfate]
[4]; IV 15-100 μM, [6,7-3H2]estrone 100 μM
  saturation curves for IV from two sources: essentially superimposable
[4]; sulfate transfer to [6,7-3H2]estrone, listed as IV
  activity compared with PAPS from enzymatic/biochemical procedure: virtually identical
Storage stability
  storage stability: kept indefinitely

## Nc1ncnc2c1ncn2[C@@H]1O[C@H](COP(=O)(O)O)[C@@H](O)[C@H]1OP(=O)(O)O [2'PAdo5'P, adenosine 2',5'-diphosphate]
[2]; data taken from Horwitz et al, Biochim. Biophys. Acta, 480:376-381 (1977)
  Ki of desulfurylated nucleotide (coproduct): .infin.
[2]
  enzyme affinity / effect of coproduct (in words): weak and devoid of activity
  Ki of coproduct: .infin.

## Nc1ncnc2c1ccn2[C@@H]1O[C@H](COP(=O)(O)OS(=O)(=O)O)[C@@H](OP(=O)(O)O)[C@H]1O [3'P(7-deaza-Ado)5'PS, tubercidin 3'-phosphate 5'-phosphosulfate]
[1]
  reduction in RSR relative to IVa: 14-15%
  calculated level of coproduct produced: 4 µM
[1]; listed as 3'PTu5'PS
  RSR (in words): compare favorably with active sulfate itself
[1]; listed as IVe
  RSR (in words): the largest

## Nc1ncnc2c1nc(Br)n2[C@@H]1O[C@H](COP(=O)(O)OS(=O)(=O)O)[C@@H](OP(=O)(O)O)[C@H]1O [3'P8-BrAdo5'PS, 8-bromoadenosine 3'-phosphate 5'-phosphosulfate]
[1]
  reduction in RSR relative to IVa: 14-15%
  calculated level of coproduct produced: 4 µM
  RSR (in words): compare favorably with active sulfate itself
[1]; listed as IVb
  RSR (in words): the largest

## Nc1ncnc2c1ncn2[C@@H]1O[C@H](COP(=O)(O)OS(=O)(=O)O)[C@@H](O)[C@H]1OP(=O)(O)O [2'PAdo5'PS, adenosine 2'-phosphate 5'-phosphosulfate]
[1]; expected value at 200 μM concentration
  RSR at 200 μM (expected): ~0.29
[1]; stated in Table III footnote c
  saturation concentration: 100 µM
[4]; Iso-PAPS, sulfate transfer to [6,7-3H2]estrone
  activity relative to the natural isomer: approximately one-third
[4]; sulfate transfer to estrone
  activity relative to the natural isomer (IVa): approximately one-third

## Nc1ncnc2c1ccn2[C@@H]1O[C@H](COP(=O)(O)O)[C@@H](O)[C@H]1OP(=O)(O)O [2'P(7-deaza-Ado)5'P]
[2]
  enzyme affinity / effect of coproduct (in words): has an effect on the estrogen sulfotransferase reaction
  Ki of coproduct: compares favorably with that of 3'PAdo5'P

## Nc1ncnc2c([C@@H]3O[C@H](COP(=O)(O)O)[C@@H](OP(=O)(O)O)[C@H]3O)n[nH]c12 [3'PFo5'P, formycin (7-amino-3-(β-D ribofuranosyl)pyrazolo-[4,3-d]-pyrimidine) 3',5'-diphosphate]
[2]
  enzyme affinity / effect of coproduct (in words): intermediate affinity
